The structures appear in SMILES notation.

Data on 16 compounds can be found in patent US8859569B2, “Substituted annellated pyrimidines and use thereof” (Bayer Pharma Aktiengesellschaft, priority 2011, dated 2014).

Assay [1] concerns aorta rings. Nature of the assay: Vessel-relaxing action in vitro (aorta rings, phenylephrine contraction). As to conditions: Oryctolagus cuniculus, concentration required to reduce phenylephrine-induced contraction of rabbit aorta rings by 50%. The method, boiled down:
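Rabbit aortic rings 1.5 mm wide were held under preload in carbogen-gassed Krebs-Henseleit at 37 °C and contracted with cumulative phenylephrine. Test substance was added in rising doses on successive passes, each compared with the preceding control contraction. IC50 is the concentration that halves contraction, with 0.1% DMSO in the bath.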

Assay [2] has as its target T1, recombinant guanylate cyclase reporter cell line (Rattus norvegicus, UniProt P19686+P20595).
T1 construct: expressed in transfected cells
T1 sequence (P20595 1-619): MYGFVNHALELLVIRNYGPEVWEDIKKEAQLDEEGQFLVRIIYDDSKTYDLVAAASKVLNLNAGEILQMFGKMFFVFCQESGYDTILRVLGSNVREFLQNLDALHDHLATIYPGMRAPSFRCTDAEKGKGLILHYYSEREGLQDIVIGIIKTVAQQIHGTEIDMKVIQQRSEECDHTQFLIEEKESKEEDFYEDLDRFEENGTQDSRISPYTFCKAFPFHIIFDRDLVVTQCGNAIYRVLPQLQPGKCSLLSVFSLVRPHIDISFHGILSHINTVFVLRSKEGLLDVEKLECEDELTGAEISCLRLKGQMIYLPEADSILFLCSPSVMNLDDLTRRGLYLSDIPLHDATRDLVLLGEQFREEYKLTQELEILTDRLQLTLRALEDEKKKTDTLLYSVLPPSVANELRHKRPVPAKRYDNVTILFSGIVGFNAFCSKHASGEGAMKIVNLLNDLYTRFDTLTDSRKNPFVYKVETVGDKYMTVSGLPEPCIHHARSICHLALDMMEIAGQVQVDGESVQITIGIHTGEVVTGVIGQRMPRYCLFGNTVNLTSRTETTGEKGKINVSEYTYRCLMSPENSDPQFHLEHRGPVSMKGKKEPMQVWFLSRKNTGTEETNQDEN
T1 sequence (P19686 1-690): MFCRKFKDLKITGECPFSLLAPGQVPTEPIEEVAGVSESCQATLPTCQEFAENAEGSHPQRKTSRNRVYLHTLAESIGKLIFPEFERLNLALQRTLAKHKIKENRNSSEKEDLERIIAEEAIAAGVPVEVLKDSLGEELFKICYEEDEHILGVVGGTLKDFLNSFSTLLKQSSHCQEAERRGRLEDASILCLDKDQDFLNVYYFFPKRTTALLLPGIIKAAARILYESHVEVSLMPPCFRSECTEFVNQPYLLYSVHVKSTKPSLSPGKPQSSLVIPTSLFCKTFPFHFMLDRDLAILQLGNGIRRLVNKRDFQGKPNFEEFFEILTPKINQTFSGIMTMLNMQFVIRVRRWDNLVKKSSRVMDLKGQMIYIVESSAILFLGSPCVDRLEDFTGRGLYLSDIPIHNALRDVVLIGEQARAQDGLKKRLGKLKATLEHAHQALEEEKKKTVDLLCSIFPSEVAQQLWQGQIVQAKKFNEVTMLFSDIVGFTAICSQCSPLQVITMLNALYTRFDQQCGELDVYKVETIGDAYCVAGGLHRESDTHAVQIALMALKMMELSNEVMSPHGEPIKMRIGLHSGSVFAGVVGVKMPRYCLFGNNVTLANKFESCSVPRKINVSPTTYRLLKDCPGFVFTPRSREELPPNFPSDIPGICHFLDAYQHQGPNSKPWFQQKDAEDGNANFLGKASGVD
Nature of the assay: Action on recombinant guanylate cyclase reporter cell line. Type of assay: cell-based. How it is done: B-2. Action on Recombinant Guanylate Cyclase Reporter Cell Line
The cellular action of the compounds according to the invention is determined on a recombinant guanylate cyclase reporter cell line, as described in F. Wunder et al., Anal. Biochem. 339, 104-112 (2005).

Assay [3] deals with T2, human phosphodiesterase 5 (PDE-5) (Homo sapiens, UniProt O76074).
T2 construct: PDE-5 preparations are obtained from human platelets by lysis; from tissue; host or cells: human platelets
Nature of the assay: Inhibition of human phosphodiesterase 5 (PDE-5), SPA assay. In kind it is biochemical. As to conditions: PDE-5 preparation from human platelets, [8-3H]cGMP substrate. The method, boiled down: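 Scintillation proximity read-out with yttrium beads after 60 min room-temperature hydrolysis of 0.025 μCi [8-3H]cGMP, pH 7.5 Tris/MgCl2/EDTA buffer. Enzyme is a human platelet PDE-5 fraction, diluted to keep substrate turnover below 70%. Test concentrations 4 μM–0.0018 μM final; IC50 from inhibition curves.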

Turning to `CC1(C)C(=O)Nc2nc(-n3nc(Cc4ccccc4F)c4cc(F)ccc43)nc(OCCC(F)(F)F)c21` [Example 34, 2-[5-Fluoro-3-(2-fluorobenzyl)-1H-indazol-1-yl]-5,5-dimethyl-4-(3,3,3-trifluoropropoxy)-5,7-dihydro-6H-pyrrolo[2,3-d]pyrimidin-6-one], the results for the half-inhibitory concentration (IC50) in assay [1] and in assay [3] were 6150 nM and 550 nM, respectively. In addition, in assay [2], the “MEC (minimal effective concentration)” value came to 1.0 μm.

Turning to `CC1(C)C(=O)Nc2nc(-n3nc(Cc4ccccc4F)c4ccccc43)nc(NCCC(F)(F)F)c21` [Example 35, 2-[3-(2-Fluorobenzyl)-1H-indazol-1-yl]-5,5-dimethyl-4-[(3,3,3-trifluoropropyl)amino]-5,7-dihydro-6H-pyrrolo[2,3-d]pyrimidin-6-one], the IC50 in assay [1] is > 10000 nM; in assay [3] it was 110 nM. Further, the “MEC (minimal effective concentration)” value in assay [2] is 0.3 μm.

Consider `CC1(C)C(=O)Nc2nc(-n3nc(Cc4ccccc4F)c4ccccc43)nc(NCC3CC3)c21` [Example 36], for which the values for the IC50 in assay [1] and in assay [3] were 5490 nM and 89 nM, respectively. Further, in assay [2], the “MEC (minimal effective concentration)” value is on record as 0.3 μm.

With `CC1(C)C(=O)Nc2nc(-n3nc(Cc4ccccc4F)c4cc(F)ccc43)nc(NCCC(F)(F)F)c21` [Example 37], the IC50 in assay [1] was determined as 3870 nM; in assay [3] it was 100 nM. Besides, in assay [2], the “MEC (minimal effective concentration)” value was 0.3 μm.

Consider `CC1(C)C(=O)Nc2nc(-n3nc(Cc4ccccc4F)c4cc(F)ccc43)nc(NCC3CC3)c21` [Example 38], for which the IC50 came to 10000 nM in assay [1] and 41 nM in assay [3]. The “MEC (minimal effective concentration)” value in assay [2] worked out at 0.3 μm.

Turning to `CC1(C)C(=O)Nc2nc(-c3nc(Cc4ccccc4F)c4ncccn34)nc(NCCC(F)(F)F)c21` [Example 39, 2-[8-(2-Fluorobenzyl)imidazo[1,5-a]pyrimidin-6-yl]-5,5-dimethyl-4-[(3,3,3-trifluoropropyl)amino]-5,7-dihydro-6H-pyrrolo[2,3-d]pyrimidin-6-one], the values for the half-maximal inhibitory concentration (IC50) in assay [1] and in assay [3] were 618 nM and 88 nM, respectively. Further, the “MEC (minimal effective concentration)” value in assay [2] is recorded as 0.1 μm.

Consider `C[C@@H](Nc1nc(-c2nn(Cc3ccccc3F)c3ncc(F)cc23)nc2c1C(C)(C)C(=O)N2)C1CC1` [Example 88, 4-{[(1R)-1-Cyclopropylethyl]amino}-2-[5-fluoro-1-(2-fluorobenzyl)-1H-pyrazolo[3,4-b]pyridin-3-yl]-5,5-dimethyl-5,7-dihydro-6H-pyrrolo[2,3-d]pyrimidin-6-one], for which the results for the 50% inhibitory concentration (IC50) in assay [1] and in assay [3] were 1670 nM and 150 nM, respectively. Further, the “MEC (minimal effective concentration)” value in assay [2] turned out to be 0.1 μm.

Turning to `C[C@H](Nc1nc(-c2nn(Cc3ccccc3F)c3ncc(F)cc23)nc2c1C(C)(C)C(=O)N2)C1CC1` [Example 89, 4-{[(1S)-1-Cyclopropylethyl]amino}-2-[5-fluoro-1-(2-fluorobenzyl)-1H-pyrazolo[3,4-b]pyridin-3-yl]-5,5-dimethyl-5,7-dihydro-6H-pyrrolo[2,3-d]pyrimidin-6-one], the results for the IC50 in assay [1] and in assay [3] were 3880 nM and 82 nM, respectively. Further, the “MEC (minimal effective concentration)” value in assay [2] stood at 0.03 μm.

With `Cc1nc2c(cc1F)c(-c1nc(NCCC(F)(F)F)c3c(n1)NC(=O)C3(C)C)nn2Cc1ccccc1F` [Example 90, 2-[5-Fluoro-1-(2-fluorobenzyl)-6-methyl-1H-pyrazolo[3,4-b]pyridin-3-yl]-5,5-dimethyl-4-[(3,3,3-trifluoropropyl)amino]-5,7-dihydro-6H-pyrrolo[2,3-d]pyrimidin-6-one], the IC50 in assay [1] was 3070 nM; in assay [3] it was 230 nM. The “MEC (minimal effective concentration)” value in assay [2] worked out at 0.3 μm.

Regarding `CC1(C)C(=O)Nc2nc(-c3nn(Cc4ccccc4F)c4ncccc34)nc(N3CC(C(F)(F)F)CCC3=O)c21` (stereo not drawn) [Example 91, 2-[1-(2-Fluorobenzyl)-1H-pyrazolo[3,4-b]pyridin-3-yl]-5,5-dimethyl-4-[2-oxo-5-(trifluoromethyl)piperidin-1-yl]-5,7-dihydro-6H-pyrrolo[2,3-d]pyrimidin-6-one], the half-inhibitory concentration (IC50) in assay [1] is 517 nM; in assay [3], 600 nM. In addition, in assay [2], the “MEC (minimal effective concentration)” value came out at 0.03 μm.

In the case of `CC1C(=O)NCCN1c1nc(-c2nn(Cc3ccccc3F)c3ncccc23)nc2c1C(C)(C)C(=O)N2` (stereo not drawn) [Example 92, 2-[1-(2-Fluorobenzyl)-1H-pyrazolo[3,4-b]pyridin-3-yl]-5,5-dimethyl-4-(2-methyl-3-oxopiperazin-1-yl)-5,7-dihydro-6H-pyrrolo[2,3-d]pyrimidin-6-one], the figures for the 50% inhibitory concentration (IC50) in assay [1] and in assay [3] were 520 nM and 170 nM, respectively. Moreover, the “MEC (minimal effective concentration)” value in assay [2] came out at 0.3 μm.

Take `CC1(C)C(=O)Nc2nc(-c3nn(Cc4ccccc4F)c4ncccc34)nc(N3CCS(=O)(=O)CC3)c21` [Example 93, 4-(1,1-Dioxidothiomorpholin-4-yl)-2-[1-(2-fluorobenzyl)-1H-pyrazolo[3,4-b]pyridin-3-yl]-5,5-dimethyl-5,7-dihydro-6H-pyrrolo[2,3-d]pyrimidin-6-one]: the IC50 in assay [1] stood at 984 nM; in assay [3] it was 120 nM. Also, in assay [2], the “MEC (minimal effective concentration)” value is reported as 0.3 μm.

As for `CC(=O)NC1CCN(c2nc(-c3nn(Cc4ccccc4F)c4ncccc34)nc3c2C(C)(C)C(=O)N3)C1` (stereo not drawn) [Example 94, N-(1-{2-[1-(2-Fluorobenzyl)-1H-pyrazolo[3,4-b]pyridin-3-yl]-5,5-dimethyl-6-oxo-6,7-dihydro-5H-pyrrolo[2,3-d]pyrimidin-4-yl}pyrrolidin-3-yl)acetamide], the IC50 in assay [1] stood at 277 nM; in assay [3], 140 nM. Also, the “MEC (minimal effective concentration)” value in assay [2] is recorded as 0.1 μm.

As for `CC1(C)C(=O)Nc2nc(-c3nn(Cc4ccccc4F)c4ncccc34)nc(N[C@H]3CC[C@H](O)CC3)c21` [Example 95, 2-[1-(2-Fluorobenzyl)-1H-pyrazolo[3,4-b]pyridin-3-yl]-4-[(trans-4-hydroxycyclohexyl)amino]-5,5-dimethyl-5,7-dihydro-6H-pyrrolo[2,3-d]pyrimidin-6-one], the concentration for half-maximal inhibition (IC50) in assay [1] worked out at 228 nM; in assay [3] it was 4 nM. In addition, the “MEC (minimal effective concentration)” value in assay [2] is 0.1 μm.

For `CC1(C)C(=O)Nc2nc(-c3nn(Cc4ccccc4F)c4ncc(F)cc34)nc(NCC3CC3(F)F)c21` (stereo not drawn) [Example 97, 4-{[(2,2-Difluorocyclopropyl)methyl]amino}-2-[5-fluoro-1-(2-fluorobenzyl)-1H-pyrazolo[3,4-b]pyridin-3-yl]-5,5-dimethyl-5,7-dihydro-6H-pyrrolo[2,3-d]pyrimidin-6-one], the results for the concentration for half-maximal inhibition (IC50) in assay [1] and in assay [3] were 1350 nM and 63 nM, respectively. Also, the “MEC (minimal effective concentration)” value in assay [2] was determined as 0.1 μm.

With `CC1(C)C(=O)Nc2nc(-c3nn(Cc4ccccc4F)c4ncc(F)cc34)nc(NCC3(O)CC3)c21` [Example 98, 2-[5-Fluoro-1-(2-fluorobenzyl)-1H-pyrazolo[3,4-b]pyridin-3-yl]-4-{[(1-hydroxycyclopropyl)methyl]amino}-5,5-dimethyl-5,7-dihydro-6H-pyrrolo[2,3-d]pyrimidin-6-one], the results for the half-inhibitory concentration (IC50) in assay [1] and in assay [3] were 214 nM and 4 nM, respectively. In addition, in assay [2], the “MEC (minimal effective concentration)” value is recorded as 0.01 μm.

A word on the IC50: it is the concentration that inhibits the measured activity by half.
